Where a name gives a salt, the structure may show the parent alone. Read-outs that look alike come from different tables or passages of the source.
Key:
[1] = tested on: Fusarium solani (ATCC 36031); test: Stand-alone biocidal test without organic soil; format: cell-based; details: 25 ppm in BBS; for log reduction at 25 ppm: Fusarium solani, ATCC36031, without organic soil, read-out: Stand-alone biocidal result (microbial log reduction) F. solani
Procedure: (§1) A test was conducted to study the microbiocidal efficacy of a solution containing a quaternary ammonium ester of the present invention employing borate buffered saline (BBS). The antimicrobial efficacy of each of the various compositions for the chemical disinfection of contact lenses was evaluated. Microbial challenge inoculums were prepared using Pseudomonas aeruginosa (ATCC 9027), Staphylococcus aureus (ATCC 6538), Serratia marcescens (ATCC 13880), Candida albicans (ATCC 10231) and Fusarium solani (ATCC 36031). The test organisms were cultured on appropriate agar and the cultures were harvested using sterile DPBST (Dulbecco's Phosphate Buffered Saline plus 0.05 percent weight/volume polysorbate 80) or a suitable diluent and transferred to a suitable vessel. Spore suspensions were filtered through sterile glass wool to remove hyphal fragments. Serratia marcescens, as appropriate, was filtered through a 1.2 mμ filter to clarify the suspension. After harvesting, the suspension was centrifuged at no more than 5000×g for a maximum of 30 minutes at 20 to 25° C. The supernatant was poured off and resuspended in DPBST or other suitable diluent. The suspension was centrifuged a second time, and resuspended in DPBST or other suitable diluent. All challenge bacterial and fungal cell suspensions were adjusted with DPBST or other suitable diluent to 1×10^7 to 1×10^8 cfu/ml. The appropriate cell concentration may be estimated by measuring the turbidity of the suspension, for example, using a spectrophotometer at a preselected wavelength, for example 490 nm. One tube was prepared containing a minimum of 10 ml of test solution per challenge organism. Each tube of the solution to be tested was inoculated with a suspension of the test organism sufficient to provide a final count of 1×10^5 to 1×10^6 cfu/ml, the volume of the inoculum not exceeding 1 percent of the sample volume. Dispersion of the inoculum was ensured by vortexing the sample for at least 15 seconds. The inoculated product was stored at 10 to 25° C. Aliquots in the amount of 1.0 ml were taken of the inoculated product for determination of viable counts after certain time periods of disinfection. The time points for the bacteria were, for example, 1, 2, 3 and 4 hours when the proposed regimen soaking time was four hours. Yeast and mold were tested at an additional timepoint of 16 hours (4 times the regimen time). The suspension was mixed well by vortexing vigorously for at least 5 seconds. The 1.0 ml aliquots removed at the specified time intervals were subjected to a suitable series of decimal dilutions in validated neutralizing media. The suspensions were mixed vigorously and incubated for a suitable period of time to allow for neutralization of the microbial agent at room temperature. The viable count of organisms was determined in appropriate dilutions by preparation of triplicate plates of trypticase soy (TSA) agar for bacteria and Sabouraud dextrose agar (SDA) for mold and yeast. The bacterial recovery plates were incubated at 30 to 35° C. for two to four days. The yeast was incubated at 20 to 30° C. for two to four days and mold recovery plates were incubated at 20 to 25° C. for three to seven days. The average number of colony forming units was determined on countable plates. Countable plates refer to 30 to 300 cfu/plates for bacteria and yeast, and 8 to 80 cfu/plate for mold except when colonies are observed only for the 10^0 or 10^−1 dilution plates. The microbial reduction was then calculated at the specified time points. […] Following inoculation in a validated neutralizing broth and incubation for an appropriate period of time, the inoculum control must be between 1.0×10^5 to 1.0×10^6 cfu/ml. […]

[2] = tested on: Staphylococcus aureus (ATCC 6538); test: Stand-alone biocidal test without organic soil; format: cell-based; details: 25 ppm in BBS; for Stand-alone biocidal result (microbial log reduction) S. aureus: without organic soil
Procedure: as §1

[3] = tested on: Candida albicans (ATCC 10231); test: Stand-alone biocidal test without organic soil; format: cell-based; details: 25 ppm in BBS; for log reduction at 25 ppm: Candida albicans, ATCC10231, without organic soil, read-out: Stand-alone biocidal result (microbial log reduction) C. albicans
Procedure: as §1

[4] = tested on: Pseudomonas aeruginosa (ATCC 9027); test: Stand-alone biocidal test without organic soil; format: cell-based; details: 25 ppm in BBS; for Stand-alone biocidal result (microbial log reduction) P. aeruginosa: without organic soil
Procedure: as §1

[5] = tested on: Serratia marcescens (ATCC 13880); test: Stand-alone biocidal test without organic soil; format: cell-based; details: 25 ppm in BBS; for Stand-alone biocidal result (microbial log reduction) S. marcescens: without organic soil
Procedure: as §1

melting point	SMILES	log reduction at 25 ppm ([1]; 1 hr.)	log reduction at 25 ppm ([1]; 4 hr.)	Stand-alone biocidal result (microbial log reduction) S. aureus ([2]; 1 hr.)	Stand-alone biocidal result (microbial log reduction) S. aureus ([2]; 4 hr.)	log reduction at 25 ppm ([3]; 1 hr.)	log reduction at 25 ppm ([3]; 4 hr.)	Stand-alone biocidal result (microbial log reduction) P. aeruginosa ([4]; 1 hr.)	Stand-alone biocidal result (microbial log reduction) P. aeruginosa ([4]; 4 hr.)	Stand-alone biocidal result (microbial log reduction) S. marcescens ([5]; 1 hr.)	Stand-alone biocidal result (microbial log reduction) S. marcescens ([5]; 4 hr.)	further results
87 to 89 °C	CCCCCCCCCCCCCC(=O)OCCC[N+](C)(C)CCCC (as salt: iodide) [Compound 10, N-myristoyloxypropyl-N-butyl-N,N-dimethylammonium iodide]											
107 to 109 °C	CCCCCCCC(=O)OCCC[N+](C)(C)C (as salt: iodide) [Compound 2, N-capryloyloxypropyl-N,N,N-trimethylammonium iodide]											
78 to 79 °C	CCCCCCCCCCCCCC(=O)OCCC[N+](C)(C)CCCCCC (as salt: iodide) [Compound 12, N-myristoyloxypropyl-N,N-dimethyl-N-hexylammonium iodide]											
80 to 82 °C	CCCCCCCCCCCCCC(=O)OCCC[N+](C)(C)CCC (as salt: iodide) [Compound 9, N-myristoyloxypropyl-N,N-dimethyl-N-propylammonium iodide]											
103 to 104 °C	CCCCCCCCCCCCCC(=O)OCCC[N+](C)(C)CCCCCCCCCC (as salt: iodide) [Compound 13, N-myristoyloxypropyl-N-decyl-N,N-dimethylammonium iodide]											
	CCCCCCCCCCCCCC(=O)OCCCN(C)C [N-myristoyloxypropyl-N,B-dimethylamine, reference compound]											Effectiveness against F. solani (stand-alone biocidal data) [1]: failed to be effective; Effectiveness against S. aureus (stand-alone biocidal data) [2]: failed to be effective; Effectiveness against C. albicans (stand-alone biocidal data) [3]: failed to be effective; Effectiveness against P. aeruginosa (stand-alone biocidal data) [4]: failed to be effective; Effectiveness against S. marcescens (stand-alone biocidal data) [5]: failed to be effective
	CCCCCCCCCCCCCC(=O)NCCC[N+](C)(C)C.[I-] [N-myristamidopropyl-N,N,N-trimethylammonium iodide, reference compound]											Effectiveness against F. solani (stand-alone biocidal data) [1]: failed; Effectiveness against S. aureus (stand-alone biocidal data) [2]: proved effective; Effectiveness against C. albicans (stand-alone biocidal data) [3]: failed; Effectiveness against P. aeruginosa (stand-alone biocidal data) [4]: proved effective; Effectiveness against S. marcescens (stand-alone biocidal data) [5]: failed
	CCCCCCCCCCCC(=O)OCCC[N+](C)(C)C [Compound 4, N-lauroyloxypropyl-N,N,N-trimethylammonium iodide]	0.1	0.6	TNTC	TNTC	0	0.1	2.0	3.0	TNTC	TNTC	
116 to 118 °C	CCCCCCCCCCCCCCCC(=O)OCCC[N+](C)(C)C (as salt: iodide) [Compound 6, N-palmitoyloxypropyl-N,N,N-trimethylammonium iodide]											
	CCCCCCCC(=O)OCCC[N+](C)(C)C [Compound 2, N-capryloyloxypropyl-N,N,N-trimethylammonium iodide]	0.1	0.6	TNTC	TNTC	0	0.2	TNTC	TNTC	TNTC	TNTC	
	CCCCCCCCCCCCCC(=O)OCCC[N+](C)(C)C [Compound 5, N-myristoyloxypropyl-N,N,N-trimethylammonium iodide]	3.2	3.3	>4.7	>4.7	1.9	3.4	>4.6	>4.6	3.4	>4.6	
	CCCCCCCCCCCCCC(=O)OCCOCC[N+](C)(C)C [Compound 15, N-myristoyloxyethoxyethyl-N,N,N-trimethylammonium iodide]	3.8	4.1	>4.8	>4.8	3.6	4.6	>4.7	>4.7	3.8	>4.8	
	CCCCCCCCCCCCCC(=O)OCCC[N+](C)(C)CCCCCCCCCC [Compound 13, N-myristoyloxypropyl-N-decyl-N,N-dimethylammonium iodide]	1.5	3.1	3.8	4.8	0.5	1.2	3.5	4.7	TNTC	2.9	
	CCCCCCCCCCCCCCCCCC(=O)OCCC[N+](C)(C)C [Compound 7, N-stearoyloxypropyl-N,N,N-trimethylammonium iodide]	2.9	3.5	3.5	>4.8	0.7	2.5	2.0	3.3	TNTC	TNTC	
	CCCCCCCCCCCCCC(=O)NCCCN(C)C [N-myristamidopropyl-N,N-dimethylamine, reference compound]											Effectiveness against F. solani (stand-alone biocidal data) [1]: effective; Effectiveness against S. aureus (stand-alone biocidal data) [2]: effective; Effectiveness against C. albicans (stand-alone biocidal data) [3]: effective; Effectiveness against P. aeruginosa (stand-alone biocidal data) [4]: effective; Effectiveness against S. marcescens (stand-alone biocidal data) [5]: not effective
	CCCCCCCCCCCCCC(=O)OCCC[N+](C)(C)CCCC [Compound 10, N-myristoyloxypropyl-N-butyl-N,N-dimethylammonium iodide]	> 4.5	> 4.5	>4.8	>4.8	4.5	> 4.8	>4.7	4.7	3.8	>4.8	

SMILES	melting point	log reduction at 25 ppm ([1]; 1 hr.)	log reduction at 25 ppm ([1]; 4 hr.)	Stand-alone biocidal result (microbial log reduction) S. aureus ([2]; 1 hr.)	Stand-alone biocidal result (microbial log reduction) S. aureus ([2]; 4 hr.)	log reduction at 25 ppm ([3]; 1 hr.)	log reduction at 25 ppm ([3]; 4 hr.)	Stand-alone biocidal result (microbial log reduction) P. aeruginosa ([4]; 1 hr.)	Stand-alone biocidal result (microbial log reduction) P. aeruginosa ([4]; 4 hr.)	Stand-alone biocidal result (microbial log reduction) S. marcescens ([5]; 1 hr.)	Stand-alone biocidal result (microbial log reduction) S. marcescens ([5]; 4 hr.)	further results
CCCCCCCCCCCCCC(=O)OCCC[N+](C)(C)Cc1ccccc1 (as salt: chloride) [Compound 1, N-myristoyloxypropyl-N-benzyl-N,N-dimethylammonium chloride]	93 to 95 °C											

— patent US20040115160A1, “Quaternary ammonium esters for disinfection and preservation” (priority 2002, published 2004)
